Data from patent publication US10022376B2 (Pfizer Inc., priority 2014, dated 2018).
Counter-ions that a name gives are not always drawn.

molecular target: JAK1 (Homo sapiens (Human), UniProt P23458); experiment: JAK Caliper Enzyme Assay at 1 mM ATP (JAK1); assay type: biochemical; settings: Caliper assay at 1 mM ATP
Sequence (P23458 whole entry): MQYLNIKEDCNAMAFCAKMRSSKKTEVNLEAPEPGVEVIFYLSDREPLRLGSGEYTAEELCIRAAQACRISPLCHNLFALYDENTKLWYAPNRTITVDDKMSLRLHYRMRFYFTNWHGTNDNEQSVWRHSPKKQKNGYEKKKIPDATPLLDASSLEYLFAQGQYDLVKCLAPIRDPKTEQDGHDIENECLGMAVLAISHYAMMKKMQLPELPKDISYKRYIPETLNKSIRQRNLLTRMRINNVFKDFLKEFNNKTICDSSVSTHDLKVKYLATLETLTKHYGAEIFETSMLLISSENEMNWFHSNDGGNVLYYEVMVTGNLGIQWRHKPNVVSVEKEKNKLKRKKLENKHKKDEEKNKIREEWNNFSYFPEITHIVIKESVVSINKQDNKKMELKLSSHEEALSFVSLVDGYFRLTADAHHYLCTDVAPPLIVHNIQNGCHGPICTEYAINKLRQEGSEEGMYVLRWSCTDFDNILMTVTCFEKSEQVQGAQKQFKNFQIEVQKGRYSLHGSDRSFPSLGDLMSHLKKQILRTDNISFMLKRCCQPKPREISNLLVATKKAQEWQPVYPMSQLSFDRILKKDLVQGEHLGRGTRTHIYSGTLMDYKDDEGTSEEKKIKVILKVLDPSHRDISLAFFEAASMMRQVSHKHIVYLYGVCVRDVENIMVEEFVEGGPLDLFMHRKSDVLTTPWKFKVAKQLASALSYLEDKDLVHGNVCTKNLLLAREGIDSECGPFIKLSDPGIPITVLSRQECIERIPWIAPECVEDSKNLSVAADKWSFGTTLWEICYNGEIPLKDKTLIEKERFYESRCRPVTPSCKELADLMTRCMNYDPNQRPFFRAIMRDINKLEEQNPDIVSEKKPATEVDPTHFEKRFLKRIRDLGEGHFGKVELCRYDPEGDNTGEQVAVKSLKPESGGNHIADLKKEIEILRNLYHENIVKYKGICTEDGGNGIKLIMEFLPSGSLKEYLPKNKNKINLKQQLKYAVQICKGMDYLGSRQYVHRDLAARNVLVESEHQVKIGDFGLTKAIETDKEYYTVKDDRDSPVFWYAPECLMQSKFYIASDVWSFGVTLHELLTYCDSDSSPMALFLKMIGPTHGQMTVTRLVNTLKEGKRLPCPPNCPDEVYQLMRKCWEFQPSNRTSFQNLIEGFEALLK

Compound | IC50 [nM]
CCNC(=O)c1n[nH]c2cc(-c3cc(F)c(O)cc3CC(F)(F)F)nc(NCc3nccnc3N(CC)S(C)(=O)=O)c12 [Example 46, N-ethyl-4-[({3-[ethyl(methylsulfonyl)amino]pyrazin-2-yl}methyl)amino]-6-[5-fluoro-4-hydroxy-2-(2,2,2-trifluoroethyl)phenyl]-1H-pyrazolo[4,3-c]pyridine-3-carboxamide] | 32.9
CCCCN(c1ccccc1CNc1nc(-c2cc(F)c(O)cc2CC)cc2[nH]ncc12)S(C)(=O)=O [Example 139, N-butyl-N-[2-({[6-(2-ethyl-5-fluoro-4-hydroxyphenyl)-1H-pyrazolo[4,3-c]pyridin-4-yl]amino}-methyl)phenyl]methanesulfonamide] | 8.5

molecular target: JAK3 (Homo sapiens (Human), UniProt P52333); experiment: JAK Caliper Enzyme Assay at 1 mM ATP (JAK3); assay type: biochemical; settings: Caliper assay at 1 mM ATP
Sequence (P52333 whole entry): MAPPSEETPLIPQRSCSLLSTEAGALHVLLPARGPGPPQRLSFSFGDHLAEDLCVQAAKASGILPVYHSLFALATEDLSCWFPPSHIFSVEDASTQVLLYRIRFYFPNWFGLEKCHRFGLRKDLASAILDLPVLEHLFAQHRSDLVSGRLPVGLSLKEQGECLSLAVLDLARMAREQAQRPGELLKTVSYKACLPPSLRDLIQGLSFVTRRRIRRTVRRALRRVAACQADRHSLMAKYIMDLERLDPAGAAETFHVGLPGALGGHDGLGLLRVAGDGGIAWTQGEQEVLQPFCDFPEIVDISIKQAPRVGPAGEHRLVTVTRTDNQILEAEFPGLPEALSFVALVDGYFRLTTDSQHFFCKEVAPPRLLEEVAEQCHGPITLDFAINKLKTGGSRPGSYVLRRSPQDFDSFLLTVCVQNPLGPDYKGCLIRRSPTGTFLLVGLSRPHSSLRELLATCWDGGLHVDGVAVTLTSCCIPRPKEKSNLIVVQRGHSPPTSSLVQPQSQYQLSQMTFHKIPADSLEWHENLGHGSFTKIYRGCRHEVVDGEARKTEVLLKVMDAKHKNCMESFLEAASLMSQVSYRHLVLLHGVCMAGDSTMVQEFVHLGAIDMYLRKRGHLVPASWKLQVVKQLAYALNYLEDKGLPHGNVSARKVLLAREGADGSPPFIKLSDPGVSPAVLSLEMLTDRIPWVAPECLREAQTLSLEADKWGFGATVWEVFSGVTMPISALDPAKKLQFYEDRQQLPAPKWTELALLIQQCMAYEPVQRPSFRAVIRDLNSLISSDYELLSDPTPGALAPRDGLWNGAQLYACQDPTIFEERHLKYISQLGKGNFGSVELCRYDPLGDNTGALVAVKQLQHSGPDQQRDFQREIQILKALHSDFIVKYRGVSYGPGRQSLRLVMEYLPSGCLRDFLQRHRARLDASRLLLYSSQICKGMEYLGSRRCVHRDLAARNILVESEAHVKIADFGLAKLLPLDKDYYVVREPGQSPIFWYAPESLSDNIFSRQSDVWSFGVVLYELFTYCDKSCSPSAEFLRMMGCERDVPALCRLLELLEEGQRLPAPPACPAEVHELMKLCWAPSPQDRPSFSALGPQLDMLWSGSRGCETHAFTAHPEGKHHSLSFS

Compound | IC50 [nM]
CCNC(=O)c1n[nH]c2cc(-c3cc(F)c(O)cc3CC(F)(F)F)nc(NCc3nccnc3N(CC)S(C)(=O)=O)c12 [Example 46, N-ethyl-4-[({3-[ethyl(methylsulfonyl)amino]pyrazin-2-yl}methyl)amino]-6-[5-fluoro-4-hydroxy-2-(2,2,2-trifluoroethyl)phenyl]-1H-pyrazolo[4,3-c]pyridine-3-carboxamide] | 179
CCc1cc(O)ccc1-c1cc2[nH]ncc2c(N2CCc3c(cccc3C(=O)NCc3ccccc3)C2)n1 [Example 117, N-benzyl-2-[6-(2-ethyl-4-hydroxyphenyl)-1H-pyrazolo[4,3-c]pyridin-4-yl]-1,2,3,4-tetrahydroisoquinoline-5-carboxamide formate] | 41.6

molecular target: TYK2 (Homo sapiens (Human), UniProt P29597); experiment: JAK Caliper Enzyme Assay at 1 mM ATP (TYK2); assay type: biochemical; settings: Caliper assay at 1 mM ATP
Sequence (P29597 whole entry): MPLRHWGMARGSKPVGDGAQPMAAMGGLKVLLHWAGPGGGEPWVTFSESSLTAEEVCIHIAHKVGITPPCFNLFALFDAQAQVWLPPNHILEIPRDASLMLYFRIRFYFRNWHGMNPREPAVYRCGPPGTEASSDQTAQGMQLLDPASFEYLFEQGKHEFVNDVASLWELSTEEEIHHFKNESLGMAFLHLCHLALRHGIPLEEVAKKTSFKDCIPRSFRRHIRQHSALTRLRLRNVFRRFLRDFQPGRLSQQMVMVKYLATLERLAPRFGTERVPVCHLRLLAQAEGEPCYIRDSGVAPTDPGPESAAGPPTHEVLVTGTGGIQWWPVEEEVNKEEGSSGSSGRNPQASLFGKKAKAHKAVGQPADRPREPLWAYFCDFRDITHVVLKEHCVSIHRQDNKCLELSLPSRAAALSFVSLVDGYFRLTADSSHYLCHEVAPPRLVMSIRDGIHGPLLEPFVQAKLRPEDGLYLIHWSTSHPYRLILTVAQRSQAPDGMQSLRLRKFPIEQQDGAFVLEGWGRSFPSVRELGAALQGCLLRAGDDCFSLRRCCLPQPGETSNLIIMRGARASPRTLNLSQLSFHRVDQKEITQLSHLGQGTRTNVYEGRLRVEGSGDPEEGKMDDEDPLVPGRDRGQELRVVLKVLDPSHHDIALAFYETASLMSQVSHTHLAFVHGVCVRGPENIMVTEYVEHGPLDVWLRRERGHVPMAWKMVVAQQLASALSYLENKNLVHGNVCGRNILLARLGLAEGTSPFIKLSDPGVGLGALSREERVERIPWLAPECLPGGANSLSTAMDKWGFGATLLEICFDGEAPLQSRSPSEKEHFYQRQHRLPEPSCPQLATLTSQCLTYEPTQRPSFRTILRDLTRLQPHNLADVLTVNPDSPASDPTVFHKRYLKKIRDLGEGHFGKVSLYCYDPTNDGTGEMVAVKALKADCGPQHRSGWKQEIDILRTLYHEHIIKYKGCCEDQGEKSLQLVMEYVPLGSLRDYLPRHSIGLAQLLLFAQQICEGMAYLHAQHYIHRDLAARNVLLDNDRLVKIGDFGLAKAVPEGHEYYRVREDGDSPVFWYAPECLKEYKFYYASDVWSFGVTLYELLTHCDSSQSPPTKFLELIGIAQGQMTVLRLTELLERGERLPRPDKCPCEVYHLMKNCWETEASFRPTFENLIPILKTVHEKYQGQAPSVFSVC

IC50 [nM] | Compound
425 | CCc1cc(O)ccc1-c1cc2[nH]ncc2c(N2CCc3c(cccc3C(=O)NCc3ccccc3)C2)n1 [Example 117, N-benzyl-2-[6-(2-ethyl-4-hydroxyphenyl)-1H-pyrazolo[4,3-c]pyridin-4-yl]-1,2,3,4-tetrahydroisoquinoline-5-carboxamide formate]

system: rhIFNγ stimulated STAT-3 phosphorylation in the A549 human epithelial cell line; experiment: A549 Cell Assay: Inhibition of pSTAT3; assay type: cell-based; settings: A549 cells
How it was run: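 A549 cells cultured 18 h were preincubated 1 h at 37° C with compound (0.3 nM to 10 μM, 0.1% DMSO) in DMEM with 0.2% BSA, then stimulated with 20 ng/mL rhIFNγ for 30 min. pSTAT3 Tyr705 in the lysates was measured by MSD immunoassay and expressed as percent inhibition.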

IC50 [nM] | Compound
72.4 | CCc1cc(O)cc(C)c1-c1cc2[nH]ncc2c(NCc2ccccc2N(C)S(C)(=O)=O)n1 [Example 156]

same assay, conditions: Homo sapiens; A549 cells

Compound | IC50 [nM]
CCc1cc(O)c(F)cc1-c1cc2[nH]nc(C(=O)NC)c2c(NCC(C)C)n1 [Example 5, 6-(2-ethyl-5-fluoro-4-hydroxyphenyl)-N-methyl-4-[(2-methylpropyl)amino]-1H-pyrazolo[4,3-c]pyridine-3-carboxamide] | 1.7
CNC(=O)c1n[nH]c2cc(-c3cc(F)c(O)cc3CC(F)(F)F)nc(NCc3cc(Cl)ccc3N(C)S(C)(=O)=O)c12 [Example 15, 4-({5-chloro-2-[methyl(methylsulfonyl)amino]benzyl}amino)-6-[5-fluoro-4-hydroxy-2-(2,2,2-trifluoroethyl)phenyl]-N-methyl-1H-pyrazolo[4,3-c]pyridine-3-carboxamide] | 92.4
CN(c1ncccc1CNc1nc(-c2cc(F)c(O)cc2CC(F)(F)F)cc2[nH]nc(C(N)=O)c12)S(C)(=O)=O [Example 62, 6-[5-fluoro-4-hydroxy-2-(2,2,2-trifluoroethyl)phenyl]-4-[({2-[methyl(methylsulfonyl)amino]pyridin-3-yl}methyl)amino]-1H-pyrazolo[4,3-c]pyridine-3-carboxamide] | 71.8
CNC(=O)c1n[nH]c2cc(-c3cc(F)c(O)cc3CC(F)(F)F)nc(NCc3cc(C)cnc3N(C)S(C)(=O)=O)c12 [Example 67, 6-[5-fluoro-4-hydroxy-2-(2,2,2-trifluoroethyl)phenyl]-N-methyl-4-[({5-methyl-2-[methyl(methylsulfonyl)amino]pyridin-3-yl}methyl)amino]-1H-pyrazolo[4,3-c]pyridine-3-carboxamide] | 104
Cc1ccc(S(=O)(=O)N(C)c2ccccc2CNc2nc(-c3cc(F)c(O)cc3CC(F)(F)F)cc3[nH]nc(C(N)=O)c23)cn1 [Example 70, 6-[5-fluoro-4-hydroxy-2-(2,2,2-trifluoroethyl)phenyl]-4-[(2-{methyl[(6-methylpyridin-3-yl)sulfonyl]amino}benzyl)amino]-1H-pyrazolo[4,3-c]pyridine-3-carboxamide] | 46.2
CNC(=O)c1n[nH]c2cc(-c3cc(F)c(O)cc3CC(F)(F)F)nc(NCc3nccnc3N(C)S(C)(=O)=O)c12 [Example 51, 6-[5-fluoro-4-hydroxy-2-(2,2,2-trifluoroethyl)phenyl]-N-methyl-4-[({3-[methyl(methylsulfonyl)amino]pyrazin-2-yl}methyl)amino]-1H-pyrazolo[4,3-c]pyridine-3-carboxamide] | 182
CNC(=O)c1n[nH]c2cc(-c3cc(F)c(O)cc3CC(F)(F)F)nc(NCc3ncccc3N(C)S(C)(=O)=O)c12 [Example 55, 6-[5-Fluoro-4-hydroxy-2-(2,2,2-trifluoroethyl)phenyl]-N-methyl-4-[({3-[methyl(methylsulfonyl)amino]pyridin-2-yl}methyl)amino]-1H-pyrazolo[4,3-c]pyridine-3-carboxamide] | 156
CNC(=O)c1n[nH]c2cc(-c3cc(F)c(O)cc3CC(F)(F)F)nc(NCc3nccnc3N(C)S(=O)(=O)c3ccccc3)c12 [Example 44, 6-[5-fluoro-4-hydroxy-2-(2,2,2-trifluoroethyl)phenyl]-N-methyl-4-[({3-[methyl(phenylsulfonyl)amino]pyrazin-2-yl}methyl)amino]-1H-pyrazolo[4,3-c]pyridine-3-carboxamide] | 59.7
CN(c1ccccc1CNc1nc(-c2cc(F)c(O)cc2CC(F)(F)F)cc2[nH]nc(C(N)=O)c12)S(=O)(=O)c1cccnc1 [Example 61, 6-[5-fluoro-4-hydroxy-2-(2,2,2-trifluoroethyl)phenyl]-4-({2-[methyl(pyridin-3-ylsulfonyl)amino]benzyl}amino)-1H-pyrazolo[4,3-c]pyridine-3-carboxamide] | 71.2
CCN(c1ccc(O)cc1CNc1nc(-c2cc(F)c(O)cc2CC(F)(F)F)cc2[nH]nc(C(N)=O)c12)S(=O)(=O)c1ccccc1 [Example 43, 4-({2-[ethyl(phenylsulfonyl)amino]-5-hydroxybenzyl}amino)-6-[5-fluoro-4-hydroxy-2-(2,2,2-trifluoroethyl)phenyl]-1H-pyrazolo[4,3-c]pyridine-3-carboxamide] | 764
CCc1cc(O)c(F)cc1-c1cc2[nH]nc(C(=O)NC)c2c(NCc2ccccc2N(C)S(N)(=O)=O)n1 [Example 73, 6-(2-ethyl-5-fluoro-4-hydroxyphenyl)-N-methyl-4-({2-[methyl(sulfamoyl)amino]benzyl}amino)-1H-pyrazolo[4,3-c]pyridine-3-carboxamide] | 35.6
CCN(c1ncccc1CNc1nc(-c2cc(F)c(O)cc2CC(F)(F)F)cc2[nH]nc(C(=O)NC)c12)S(C)(=O)=O [Example 63, 4-[({2-[ethyl(methylsulfonyl)amino]pyridin-3-yl}methyl)amino]-6-[5-fluoro-4-hydroxy-2-(2,2,2-trifluoroethyl)phenyl]-N-methyl-1H-pyrazolo[4,3-c]pyridine-3-carboxamide] | 14.6

Other lines, results leading:

IC50 [nM] | Compound
26.3 | CCN(c1ccc(C)cc1CNc1nc(-c2cc(F)c(O)cc2CC(F)(F)F)cc2[nH]nc(C(N)=O)c12)S(C)(=O)=O [Example 91, 4-({2-[ethyl(methylsulfonyl)amino]-5-methylbenzyl}amino)-6-[5-fluoro-4-hydroxy-2-(2,2,2-trifluoroethyl)phenyl]-1H-pyrazolo[4,3-c]pyridine-3-carboxamide]
220 | CC(CO)CNc1nc(-c2cc(F)c(O)cc2CC(F)(F)F)nc2[nH]nc(-c3nc4c([nH]3)CCN(Cc3ccccc3)C4)c12 (stereo not drawn) [Example 173, 4-(3-(5-Benzyl-4,5,6,7-tetrahydro-1H-imidazo[4,5-c]pyridin-2-yl)-4-((3-hydroxy-2-methylpropyl)amino)-1H-pyrazolo[3,4-d]pyrimidin-6-yl)-2-fluoro-5-(2,2,2-trifluoroethyl)phenol]
1500 | CN(c1ccc(O)cc1CNc1nc(-c2cc(F)c(O)cc2CC(F)(F)F)nc2[nH]nc(C(N)=O)c12)S(=O)(=O)c1ccccc1 [Example 108, 4-((2-(N-methylphenylsulfonamido)-5-hydroxybenzyl)amino)-6-(5-fluoro-4-hydroxy-2-(2,2,2-trifluoroethyl)phenyl)-1H-pyrazolo[3,4-d]pyrimidine-3-carboxamide]
12.9 | CCS(=O)(=O)N(C)c1ccccc1CNc1nc(-c2cc(F)c(O)cc2CC(F)(F)F)cc2[nH]nc(C(N)=O)c12 [Example 85, 6-(5-fluoro-4-hydroxy-2-(2,2,2-trifluoroethyl)phenyl)-4-((2-(N-methylethylsulfonamido)benzyl)amino)-1H-pyrazolo[4,3-c]pyridine-3-carboxamide]
133 | Oc1cc(CC(F)(F)F)c(-c2nc(NCC3CC3)c3cn[nH]c3n2)cc1F [Example 151, 4-{4-[(cyclopropylmethyl)amino]-1H-pyrazolo[3,4-d]pyrimidin-6-yl}-2-fluoro-5-(2,2,2-trifluoroethyl)phenol]
1330 | CN(c1ccccc1CNc1nc(-c2cc(F)c(O)cc2CC(F)(F)F)nc2[nH]nc(-c3nnc(C4CCN(C(=O)CN5CCCC5)CC4)[nH]3)c12)S(C)(=O)=O [Example 168, N-(2-{[(6-[5-Fluoro-4-hydroxy-2-(2,2,2-trifluoroethyl)phenyl]-3-{5-[1-(pyrrolidin-1-ylacetyl)piperidin-4-yl]-4H-1,2,4-triazol-3-yl}-1H-pyrazolo[3,4-d]pyrimidin-4-yl)amino]methyl}phenyl)-N-methylmethanesulfonamide]
2470 | CN(c1ccc(O)cc1CNc1nc(-c2cc(F)c(O)cc2CC(F)(F)F)nc2[nH]nc(C(=O)Nc3ccc(NCCO)nc3)c12)S(C)(=O)=O [Example 99, 6-(5-Fluoro-4-hydroxy-2-(2,2,2-trifluoroethyl)phenyl)-4-((5-hydroxy-2-(N-methylmethylsulfonamido)benzyl)amino)-N-(6-((2-hydroxyethyl)amino)pyridin-3-yl)-1H-pyrazolo[3,4-d]pyrimidine-3-carboxamide]
2520 | CNC(=O)c1n[nH]c2nc(-c3cc(F)c(O)cc3CC(F)(F)F)nc(NCc3cc(O)ccc3N(C)S(=O)(=O)c3ccccc3)c12 [Example 106, 4-((2-(N-Methylphenylsulfonamido)-5-hydroxybenzyl)amino)-6-(5-fluoro-4-hydroxy-2-(2,2,2-trifluoroethyl)phenyl)-N-methyl-1H-pyrazolo[3,4-d]pyrimidine-3-carboxamide]
> 10000 | CS(=O)(=O)N(CCO)c1ccccc1CNc1nc(-c2cc(F)c(O)cc2CC(F)(F)F)nc2[nH]nc(C(N)=O)c12 [Example 101, 6-(5-fluoro-4-hydroxy-2-(2,2,2-trifluoroethyl)phenyl)-4-((2-(N-(2-hydroxyethyl)methyl-sulfonamido)benzyl)amino)-1H-pyrazolo[3,4-d]pyrimidine-3-carboxamide]
